According to paper PMC6100301, “Cytotoxic and N-Acetyltransferase Inhibitory Meroterpenoids from Ganoderma cochlear” (Molecules : A Journal of Synthetic Chemistry and Natural …, 2018):

Key:
recombinant NAT2 = biological target: T1, recombinant NAT2 (Homo sapiens, UniProt P11245); experiment: N-Acetyltransferase (NAT) inhibition, fluorescent probe assay; type: biochemical; conditions: 30 min incubation; for NAT2 inhibition at 10 μM: positive control quercetin 10 μM (Figure 4)
T1 construct: purchased Corning Company, Corning, NY, USA 456282
T1 sequence (P11245 1-290): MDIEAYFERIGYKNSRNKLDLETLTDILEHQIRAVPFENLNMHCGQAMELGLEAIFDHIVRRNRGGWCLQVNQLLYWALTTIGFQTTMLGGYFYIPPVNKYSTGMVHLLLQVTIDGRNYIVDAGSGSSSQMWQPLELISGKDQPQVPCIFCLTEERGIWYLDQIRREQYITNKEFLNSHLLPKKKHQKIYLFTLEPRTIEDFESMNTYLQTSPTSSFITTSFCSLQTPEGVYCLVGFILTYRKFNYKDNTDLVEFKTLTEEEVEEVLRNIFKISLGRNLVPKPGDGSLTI

[1] = tested on: A549 human lung cancer cell line; experiment: Cytotoxicity, CCK-8 cell viability assay; type: cell-based; conditions: for Cytotoxic activity against A549 cells at 40 μM: screening (Figure S46); for IC50: Homo sapiens, A549 cells, CCK-8 assay, 24 h drug treatment
Protocol: (§1) All the isolated meroterpenoids were evaluated for their cytotoxic activity against three human lung cancer cell lines (H1975, PC9, A549). […] Besides, 2 and 5 are also found to be active against H1975 and PC9 cells at 40 μM. With this, the cytotoxic potency of 2 and 5 toward three cancer cell lines were further determined using the CCK-8 assay.
(§2) The human NSCLC cell line (NCL-H1975) was purchased from Shanghai Cell Bank of Chinese Academy of Sciences, (Shanghai, China). PC9 and A549 were obtained from American Type Culture Collection (ATCC, Manassas, VA, USA). Cells were cultured in DMEM (Gibco, Grand Island, NY, USA) with 4.5 g/L glucose and 10% FBS (Gibco, Grand Island, NY, USA). Erlotinib used in the experiments were purchased from Selleck (Selleck Chemicals, Houston, TX, USA). Cytotoxicity was determined using the previously described method. Three human lung cancer cell lines were incubated in 96-well plates (5000 cells/well) respectively to attach overnight and then exposed to drug treatments for additional 24 h. And the CCK solution was added, after 2 h of incubation, the absorbance was measured at a wavelength of 450 nm. Cell viability was measured by a TransDetect® Cell Counting Kit (TransGen Biotech, Beijing, China). The IC50 values were calculated using the GraphPad Prism 5.0 (GraphPad Software, San Diego, CA, USA).

[2] = tested on: PC9 human lung cancer cell line; experiment: Cytotoxicity, CCK-8 cell viability assay; type: cell-based; conditions: for Cytotoxic activity against PC9 cells at 40 μM: screening (Figure S46); for IC50: Homo sapiens, PC-9, PC9 cells, CCK-8 assay, 24 h drug treatment
Protocol: as §1, §2

[3] = tested on: H1975 human lung cancer cell line; experiment: Cytotoxicity, CCK-8 cell viability assay; type: cell-based; conditions: for Cytotoxic activity against H1975 cells at 40 μM: screening (Figure S46); for IC50: Homo sapiens, NCI-H1975, H1975 cells, CCK-8 assay, 24 h drug treatment
Protocol: as §1, §2

SMILES | NAT2 inhibition at 10 μM (recombinant NAT2) | Cytotoxic activity against A549 cells at 40 μM [1] | IC50 [1] | Cytotoxic activity against PC9 cells at 40 μM [2] | IC50 [2] | Cytotoxic activity against H1975 cells at 40 μM [3] | IC50 [3] | IC50 (recombinant NAT2; 0.5-10 μM, read-out: IC50 toward NAT2)
CC(C)=CCCC(C)=CCCC1=C[C@@](c2cc(O)ccc2O)(c2oc(-c3cc(O)ccc3O)cc2CCC=C(C)CCC=C(C)C)OC1=O [(−)-1, (−)-gancochlearol C] | could inhibit NAT2 | – | – | – | – | – | – | –
CC(C)=CCC/C(C)=C/CC/C(=C/Cc1cc(O)ccc1O)CO [Compound 5, ganomycin F] | – | most active | 21.6 µM | active | 35.7 µM | active | 19.5 µM | –
CC(C)=CCCC(C)=CCCC1=C[C@](c2cc(O)ccc2O)(c2oc(-c3cc(O)ccc3O)cc2CCC=C(C)CCC=C(C)C)OC1=O [(+)-1, (+)-gancochlearol C] | more potent than quercetin | – | – | – | – | – | – | 5.29 µM
C#Cc1cccc(Nc2ncnc3cc(OCCOC)c(OCCOC)cc23)c1 [Erlotinib, reference compound] | – | – | 4.59 µM | – | 0.085 µM | – | 7.66 µM | –
CC(=O)OC/C(=C\Cc1cc(O)ccc1O)CC/C=C(\C)CCC=C(C)C [Compound 2, Gancochlearol D] | – | cytotoxic | 30.7 µM | active | 40.6 µM | active | 32.4 µM | –
